Experimental data reported in patent US9662341B2, “Multifunctional topical formulation for the treatment of acne vulgaris and other skin conditions” (Kantian Sciences Corporation, priority 2011, dated 2017).
Read-outs that look alike come from different tables or passages of the source.

Columns and labels:
[1] = Percentage of mandelic acid in acid and salt forms at varying pH values; type: physicochemical
Excerpt: The same consideration of activity vs. acid:salt forms applies to mandelic acid, where the antimicrobial activity of an aqueous solution containing this material is strongly dependent on the pH of the system.

acne = conditions: cited from earlier work
E. coli = assay: Kill of E. coli within 30 seconds of contact (inventor's earlier studies); type: cell-based
[2] = HONO form in ratios of >~2:1 acid/salt

SMILES: O=C(O)[C@H](O)c1ccccc1 [Mandelate]
- Mandelate % ([1]; pH 2.46): 10%
- Mandelate % ([1]; pH 2.81): 20%
- Mandelate % ([1]; pH 3.04): 30%
- Mandelate % ([1]; pH 3.23): 40%
- Mandelate % ([1]; pH 3.41): 50%
- Mandelate % ([1]; pH 3.59): 60%
- Mandelate % ([1]; pH 3.78): 70%
- Mandelate % ([1]; pH 4.01): 80%

SMILES: O=NO [Nitrite]
- Nitrite % (pH 1.5): 1.6%
- Nitrite % (pH 2.0): 4.8%
- Nitrite % (pH 2.3): 9.1%
- Nitrite % (pH 2.6): 16.7%
- Nitrite % (pH 2.8): 24.0%
- Nitrite % (pH 3.0): 33.3%
- Nitrite % (pH 3.3): 50.0%
- Nitrite % (pH 3.5): 61.2%
- Nitrite % (pH 4.0): 83.4%
- Nitrite % (pH 4.5): 94.0%
- Nitrite % (pH 5.0): 98.0%

SMILES: O=C(O)CCCCCCCC(=O)O [azelaic acid]
- Time for acne lesions to start disappearing (acne; after starting topical application): one to two months
- Efficacy versus other topical Rx formulations (acne; benzoyl peroxide, tretinoin, antibiotics as comparators): works as well as other topical Rx formulations

SMILES: CC(O)C(=O)O (centres unmarked) [lactic acid]
- E. coli killed relative to malic acid (E. coli): 500 times

SMILES: O=C(O)C(O)c1ccccc1 (centres unmarked) [mandelic acid]
- E. coli killed relative to malic acid (E. coli): 1.5 million
- E. coli killed relative to lactic acid (E. coli; same conditions): 3000 times
- Mandelic Acid % ([1]; pH 2.46): 90%
- Mandelic Acid % ([1]; pH 2.81): 80%
- Mandelic Acid % ([1]; pH 3.04): 70%
- Mandelic Acid % ([1]; pH 3.23): 60%
- Mandelic Acid % ([1]; pH 3.41): 50%
- Mandelic Acid % ([1]; pH 3.59): 40%
- Mandelic Acid % ([1]; pH 3.78): 30%
- Mandelic Acid % ([1]; pH 4.01): 20%

SMILES: O=NO [nitrous acid]
- longer-range stability of nitrous acid systems [2]: significantly diminished
- Nitrous Acid % (pH 1.5): 98.4%
- Nitrous Acid % (pH 2.0): 95.2%
- Nitrous Acid % (pH 2.3): 90.9%
- Nitrous Acid % (pH 2.6): 83.3%
- Nitrous Acid % (pH 2.8): 76.0%
- Nitrous Acid % (pH 3.0): 66.7%
- Nitrous Acid % (pH 3.3): 50.0%
- Nitrous Acid % (pH 3.5): 38.8%
- Nitrous Acid % (pH 4.0): 16.6%
- Nitrous Acid % (pH 4.5): 6.0%
- Nitrous Acid % (pH 5.0): 2.0%
